The experiment has as its target T1, human vasopressin V1b receptor (Homo sapiens, UniProt P47901).
T1 sequence (P47901 1-424): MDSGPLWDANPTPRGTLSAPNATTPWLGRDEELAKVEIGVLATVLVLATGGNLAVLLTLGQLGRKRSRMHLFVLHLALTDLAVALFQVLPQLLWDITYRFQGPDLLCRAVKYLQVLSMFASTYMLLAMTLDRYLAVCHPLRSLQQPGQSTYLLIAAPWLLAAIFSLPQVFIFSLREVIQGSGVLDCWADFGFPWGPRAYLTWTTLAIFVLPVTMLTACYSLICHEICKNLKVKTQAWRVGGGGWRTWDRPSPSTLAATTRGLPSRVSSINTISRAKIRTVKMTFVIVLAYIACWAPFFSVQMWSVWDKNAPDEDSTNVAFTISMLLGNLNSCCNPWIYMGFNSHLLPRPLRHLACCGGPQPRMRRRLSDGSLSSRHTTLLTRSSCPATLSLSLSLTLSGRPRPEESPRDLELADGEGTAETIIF
Put plainly: biochemical.

Regarding `CCOc1ncccc1[C@]1(NC(=O)N2CCN(C3CCN(C4COC4)CC3)CC2)C(=O)N(S(=O)(=O)c2ccc(OC)cc2OC)c2ccc(C#N)cc21` [Example 1, (S)—N-(5-cyano-1-((2,4-dimethoxyphenyl)sulfonyl)-3-(2-ethoxypyridin-3-yl)-2-oxoindolin-3-yl)-4-(1-(oxetan-3-yl)piperidin-4-yl)piperazine-1-carboxamide], the Ki was < 1 nM.

`CCOc1ncccc1C1(NC(=O)N2CCN(C3CCN(C4COC4)CC3)CC2)C(=O)N(S(=O)(=O)c2ccc(OC)cc2)c2ccc(C#N)cc21` (centres unmarked) [Example 3, N-(5-cyano-3-(2-ethoxypyridin-3-yl)-1-((4-methoxyphenyl)sulfonyl)-2-oxoindolin-3-yl)-4-(1-(oxetan-3-yl)piperidin-4-yl)piperazine-1-carboxamide] returned a Ki of 1 to 10 nM. `CCOc1ncccc1C1(NC(=O)N2CCN(C3CCN(C4COC4)CC3)CC2)C(=O)N(S(=O)(=O)c2ccccc2)c2ccc(C#N)cc21` (centres unmarked) [Example 4, N-(5-cyano-3-(2-ethoxypyridin-3-yl)-2-oxo-1-(phenylsulfonyl)indolin-3-yl)-4-(1-(oxetan-3-yl)piperidin-4-yl)piperazine-1-carboxamide]: the Ki lay in the range of 10 to 100 nM. `CCOc1ncccc1[C@]1(NC(=O)N2CCN(C3CCN(C4COC4)CC3)CC2)C(=O)N(S(=O)(=O)c2ccc(C#N)cc2)c2ccc(C#N)cc21` [Example 5, (S)—N-(5-cyano-1-((4-cyanophenyl)sulfonyl)-3-(2-ethoxypyridin-3-yl)-2-oxoindolin-3-yl)-4-(1-(oxetan-3-yl)piperidin-4-yl)piperazine-1-carboxamide] showed a Ki of 1 to 10 nM. Consider `CCOc1ncccc1[C@]1(NC(=O)N2CCN(C3CCN(C4COC4)CC3)CC2)C(=O)N(S(=O)(=O)c2ccc(OC)cc2F)c2ccc(C#N)cc21` [Example 6, (S)—N-(5-cyano-3-(2-ethoxypyridin-3-yl)-1-((2-fluoro-4-methoxyphenyl)sulfonyl)-2-oxoindolin-3-yl)-4-(1-(oxetan-3-yl)piperidin-4-yl)piperazine-1-carboxamide], for which the Ki was in the range of 1 to 10 nM. `CCOc1ncccc1[C@]1(NC(=O)N2CCN(C3CCN(C4COC4)CC3)CC2)C(=O)N(S(=O)(=O)c2cc(F)c(OC)cc2OC)c2ccc(C#N)cc21` [Example 8, (S)—N-(5-cyano-3-(2-ethoxypyridin-3-yl)-1-((5-fluoro-2,4-dimethoxyphenyl)sulfonyl)-2-oxoindolin-3-yl)-4-(1-(oxetan-3-yl)piperidin-4-yl)piperazine-1-carboxamide] displayed a Ki of 1 to 10 nM. Turning to `CCOc1ncccc1[C@]1(NC(=O)N2CCN(C3CCN(C4COC4)CC3)CC2)C(=O)N(S(=O)(=O)c2ccc(OC)cc2OC)c2cc(F)c(F)cc21` [Example 9, (S)—N-(1-((2,4-dimethoxyphenyl)sulfonyl)-3-(2-ethoxypyridin-3-yl)-5,6-difluoro-2-oxoindolin-3-yl)-4-(1-(oxetan-3-yl)piperidin-4-yl)piperazine-1-carboxamide], the Ki fell in the range of 1 to 10 nM. As for `CCOc1ncccc1[C@]1(NC(=O)N2CCN(C3CCN(C4COC4)CC3)CC2)C(=O)N(S(=O)(=O)c2ccc(OC)cc2OC)c2ccc(Cl)cc21` [Example 10, (S)—N-(5-chloro-1-((2,4-dimethoxyphenyl)sulfonyl)-3-(2-ethoxypyridin-3-yl)-2-oxoindolin-3-yl)-4-(1-(oxetan-3-yl)piperidin-4-yl)piperazine-1-carboxamide], the Ki is < 1 nM.

`CCOc1ncccc1[C@]1(NC(=O)N2CCC(N3CCN(C4COC4)CC3)CC2)C(=O)N(S(=O)(=O)c2ccc(C#N)cc2)c2ccc(C#N)cc21` [Example 12, (S)—N-(5-cyano-1-((4-cyanophenyl)sulfonyl)-3-(2-ethoxypyridin-3-yl)-2-oxoindolin-3-yl)-4-(4-(oxetan-3-yl)piperazin-1-yl)piperidine-1-carboxamide] came in with a Ki of 10 to 100 nM. Next, `CCOc1ncccc1[C@]1(NC(=O)N2CCC(N3CCN(C4COC4)CC3)CC2)C(=O)N(S(=O)(=O)c2ccc(OC)cc2)c2ccc(C#N)cc21` [Example 13, (S)—N-(5-cyano-3-(2-ethoxypyridin-3-yl)-1-((4-methoxyphenyl)sulfonyl)-2-oxoindolin-3-yl)-4-(4-(oxetan-3-yl)piperazin-1-yl)piperidine-1-carboxamide]: 10 to 100 nM. Turning to `CCOc1ncccc1[C@]1(NC(=O)N2CCC(N3CCN(C4COC4)CC3)CC2)C(=O)N(S(=O)(=O)c2ccc(OC)cc2OC)c2ccc(Cl)cc21` [Example 14, (S)—N-(5-chloro-1-((2,4-dimethoxyphenyl)sulfonyl)-3-(2-ethoxypyridin-3-yl)-2-oxoindolin-3-yl)-4-(4-(oxetan-3-yl)piperazin-1-yl)piperidine-1-carboxamide], the Ki was 1 to 10 nM.

`COc1ccc(S(=O)(=O)N2C(=O)C(NC(=O)N3CCN(C4CCN(C5COC5)CC4)CC3)(c3cccnc3OC)c3cc(C#N)ccc32)c(OC)c1` (centres unmarked) [Example 15, N-(5-cyano-1-((2,4-dimethoxyphenyl)sulfonyl)-3-(2-methoxypyridin-3-yl)-2-oxoindolin-3-yl)-4-(1-(oxetan-3-yl)piperidin-4-yl)piperazine-1-carboxamide]: the Ki lay within 1 to 10 nM.

As for `CCOc1ncccc1[C@]1(NC(=O)N2CCC(N3C[C@@H]4C[C@H]3CN4C3COC3)CC2)C(=O)N(S(=O)(=O)c2ccc(OC)cc2OC)c2ccc(C#N)cc21` [Example 17, N—((S)-5-cyano-1-((2,4-dimethoxyphenyl)sulfonyl)-3-(2-ethoxypyridin-3-yl)-2-oxoindolin-3-yl)-4-((1S,4S)-5-(oxetan-3-yl)-2,5-diazabicyclo[2.2.1]heptan-2-yl)piperidine-1-carboxamide], the Ki is 10 to 100 nM.

For the compound `CCOc1ncccc1[C@]1(NC(=O)N2CCN(C3CCN(C4COC4)CC3)CC2)C(=O)N(S(=O)(=O)c2ccc(OC)c(C)c2C)c2ccc(C#N)cc21` [Example 18, (S)—N-(5-cyano-3-(2-ethoxypyridin-3-yl)-1-((4-methoxy-2,3-dimethylphenyl)sulfonyl)-2-oxoindolin-3-yl)-4-(1-(oxetan-3-yl)piperidin-4-yl)piperazine-1-carboxamide], the Ki fell in the range of 10 to 100 nM.

For orientation: Ki means a dissociation constant, usually derived from enzyme kinetics or from competition with a known ligand.
